The values that follow come from PMC9122626 (2020).

In the experiment the test system is human telomeric G4 DNA, dAGGG(TTAGGG)3 (DNA, G4) AGGGTTAGGGTTAGGGTTAGGG
The experiment in a line: CD melting (295 nm). The conditions noted are these: Na+ 100 mM; peptide concentration not given.

Take `N[C@@H](Cc1ccc(O)cc1)C(=O)N[C@@H](CCC(=O)N[C@@H](CCC(=O)O)C(=O)O)C(=O)N[C@@H](CCC(=O)O)C(=O)O` (racemic): the ΔTm is ~ 3 °C.
